{
  "source": "patent US7867747B2",
  "about": "“Fibrinolytic metalloprotease and composition comprising the same” (priority 2006, dated 2011)",
  "molecules": {"B1": {"name": "recombinant protease: Zinc-dependent fibrinolytic metalloprotease, 359 amino acids (SEQ ID NO:2), about 39 kDa, from deep-sea sediment metagenome, expressed in E. coli, purified by chitin affinity … (protein)", "chain": "MEPEPIKTCTVLENPGYQPIHAPTDVSPQPVLAAMEAVPVPTPPPTVDAVMLFRKKWRDGKILRVHFMDGDPDVHRKVEEVAHTWSRHANVRFKFVDDPAADIRISFTQPGSWSYLGTDALRIARSQSTMNFGWLTPRSPDSEYNRVVIHEFGHALGLVHEHQNPDNGIPWNKPAVYEYYSGPPNNWSKEQVDTNLFQQYSEDQVRFTGFDRESIMLYPIPNEFTVGDFEVGWNRDLSADDKEFIGRMYPKPANELIVDDPPRASEISRYGEIDTYTFLVTQKGSYRIETDGRTDLVMLLYGPEDDTKLIAADDDSGRRLNPRITEELDWGKYTVRLQHFSQRQTGKYAVGVYRDDAAE", "modifications": "Protein sequence of coding metalloprotease ES6349"}},
  "assay_type_in_all_cases": "biochemical",
  "key": {"[1]": {"tested_on": "zinc-dependent metalloprotease (purified recombinant enzyme)"}, "[2]": {"tested_on": "azocasein", "experiment": "Protease activity assay, release of acid-soluble material from azocasein", "settings": "50 mM Tris-HCl pH 7.0, 50° C., 1 h, by purification step", "description": "Protease activity was determined by measuring the release of acid-soluble material from azocasein (Sigma, USA) (Windle, H. J. P. et al., Infect. Immun. Vol. 65, pp 3132-3137, 1997).\n(§1) Specifically, all assays were conducted in a 50 mM Tris-HCl (pH 7.0) buffer. Enzyme samples (100 μl) obtained in Example 2 were added to 100 μl of 1% (w/v) azocasein and the reaction mixture was incubated at 50° C. for 1 h and terminated by the addition of 400 μl of 10% (w/v) trichloroacetic acid. The precipitated protein was removed by centrifugation (12,000×g, 5 min), and the resulting supernatant was transferred to a clean tube containing 700 μl of 525 mM NaOH. Absorbance was measured at 442 nm.\nOne unit of protease activity was defined as an amount required for producing enough acid-soluble material from azocasein to yield absorbance of 0.1 at 442 nm, following 1 h incubation at 50° C."}, "[3]": {"tested_on": "fibrin (human fibrinogen clotted with human thrombin)", "experiment": "Fibrinolytic assay, hydrolysis of fibrin clots analysed by SDS-PAGE", "settings": "37° C.", "description": "Fibrinolytic activity was determined using the method described by Datta et al. (Datta, et al., Arch. Biochem. Biophys. Vol. 317, pp 365-373, 1995) with minor modifications.\nSpecifically, 10 μl of 1% human fibrinogen (Sigma, USA) solution (prepared in a 20 mM Tris/HCl (pH 7.4) buffer) was added to human thrombin (0.05 NIH unit, Sigma, USA), and then allowed to stand for 1 h at room temperature. […] The hydrolysis of fibrin by the enzyme was analyzed by SDS-PAGE (FIG. 4). 5 μl each of reaction solutions was obtained at various time intervals and analyzed using an 11% SDS-PAGE gel."}, "[4]": {"tested_on": "azocasein", "experiment": "Effects of temperature and pH on enzyme activity (azocasein assay)", "description": "as §1\nThe optimal temperature for protease activity was examined in the buffer used in the standard assay at various temperatures. The values on the ordinate are shown as percentages of the enzyme activity (100%) observed at 50° C.\nThe optimal pH for the protease activity was determined in various buffers at 50° C. The buffers used were sodium acetate buffers (open rectangles, pH 5.0-6.0), Tris-HCl buffers (open triangles, pH 6.0-8.0) and glycine-NaOH buffers (open circles, pH 8.0-9.0).\nThe values on the ordinate are shown as percentages of the enzyme activity (100%) observed at pH 7.0. […] The optimal pH for the activity of protease was 7.0 (FIG. 3B)."}, "[5]": {"settings": "1 mM, pre-incubation 25° C. 30 min, 50 mM Tris-HCl pH 7.0, no addition = 100"}},
  "note": "Counter-ions that a name gives are not always drawn. Like-named read-outs stand apart in the source and are kept apart here.",
  "data": [
    {"molecule": "c1cnc2c(c1)ccc1cccnc12", "note": "[1,10-phenanthroline]", "values": [
      {"measurement": "effect on enzyme activity (in words)", "setting": "[1]; 1 mM, as shown in Table 2", "result": "inhibited"},
      {"measurement": "Relative activity", "setting": "[1]; [5]", "result": 55, "unit": "%"}
    ]},
    {"molecule": "[Ca+2].[Cl-].[Cl-]", "note": "[CaCl2]", "values": [
      {"measurement": "effect on enzyme activity (in words)", "setting": "[1]; 1 mM, as shown in Table 2", "result": "enhanced"},
      {"measurement": "Relative activity", "setting": "[1]; [5]", "result": 200, "unit": "%"}
    ]},
    {"molecule": "[Cl-].[Cl-].[Co+2]", "note": "[CoCl2]", "values": [
      {"measurement": "effect on enzyme activity (in words)", "setting": "[1]", "result": "enhanced"},
      {"measurement": "Relative activity", "setting": "[1]; 1 mM", "result": 280, "unit": "%"}
    ]},
    {"molecule": "O=S(=O)([O-])[O-].[Cu+2]", "note": "[CuSO4]", "values": [
      {"measurement": "Relative activity", "setting": "[1]; [5]", "result": 100, "unit": "%"}
    ]},
    {"molecule": "O=C(O)CN(CCN(CC(=O)O)CC(=O)O)CC(=O)O", "note": "[EDTA, ethylenediaminetetraacetic acid]", "values": [
      {"measurement": "effect on enzyme activity (in words)", "setting": "[1]", "result": "inhibited"},
      {"measurement": "Relative activity", "setting": "[1]; pH 7", "result": 27, "unit": "%"}
    ]},
    {"molecule": "O=C(O)CN(CCOCCOCCN(CC(=O)O)CC(=O)O)CC(=O)O", "note": "[EGTA, ethylene glycol-bis(2-aminoethylether)-N,N,N′,N′-tetraacetic acid]", "values": [
      {"measurement": "effect on enzyme activity (in words)", "setting": "[1]; 1 mM, as shown in Table 2", "result": "inhibited"},
      {"measurement": "Relative activity", "setting": "[1]; [5]", "result": 21, "unit": "%"}
    ]},
    {"molecule": "O=S(=O)([O-])[O-].[Fe+2]", "note": "[FeSO4]", "values": [
      {"measurement": "Relative activity", "setting": "[1]; [5]", "result": 100, "unit": "%"}
    ]},
    {"molecule": "N=C(N)N", "note": "[Guanidine hydrochloride, guanidine hydrochloride]", "values": [
      {"measurement": "effect on enzyme activity (in words)", "setting": "[1]; 0.5 M", "result": "strongly inhibited"},
      {"measurement": "Relative activity", "setting": "[1]; 500 mM, pre-incubation 25° C. 30 min, 50 mM Tris-HCl pH 7.0, no addition = 100", "result": 22, "unit": "%"}
    ]},
    {"molecule": "[Cl-].[Cl-].[Mg+2]", "note": "[MgCl2]", "values": [
      {"measurement": "effect on enzyme activity (in words)", "setting": "[1]; 1 mM, as shown in Table 2", "result": "inhibited"},
      {"measurement": "Relative activity", "setting": "[1]; [5]", "result": 20, "unit": "%"}
    ]},
    {"molecule": "O=S(=O)([O-])[O-].[Ni+2]", "note": "[NiSO4]", "values": [
      {"measurement": "effect on enzyme activity (in words)", "setting": "[1]; 1 mM, as shown in Table 2", "result": "enhanced"},
      {"measurement": "Relative activity", "setting": "[1]; [5]", "result": 140, "unit": "%"}
    ]},
    {"molecule": "O=S(=O)(F)Cc1ccccc1", "note": "[PMSF, phenylmethylsulfonyl fluoride]", "values": [
      {"measurement": "effect on enzyme activity (in words)", "setting": "[1]; 1 mM, as shown in Table 2", "result": "no influence"},
      {"measurement": "Relative activity", "setting": "[1]; [5]", "result": 104, "unit": "%"}
    ]},
    {"molecule": "CCCCCCCCCCCCOS(=O)(=O)[O-].[Na+]", "note": "[SDS, sodium dodecyl sulfate]", "values": [
      {"measurement": "Relative activity", "setting": "[1]; 17 mM, pre-incubation 25° C. 30 min, 50 mM Tris-HCl pH 7.0, no addition = 100", "result": 9, "unit": "%"},
      {"measurement": "effect on enzyme activity (in words)", "setting": "[1]; 0.05% SDS", "result": "easily denatured"}
    ]},
    {"molecule": "[Cl-].[Cl-].[Zn+2]", "note": "[ZnCl2]", "values": [
      {"measurement": "effect on enzyme activity (in words)", "setting": "[1]; 1 mM, as shown in Table 2", "result": "inhibited"},
      {"measurement": "Relative activity", "setting": "[1]; [5]", "result": 80, "unit": "%"}
    ]},
    {"molecule": "B1", "values": [
      {"measurement": "Specific activity", "setting": "[2]", "result": "76,000 U/mg"},
      {"measurement": "Specific activity", "setting": "[2]; listed as Affinity chromatography", "result": "3,400 U/mg"},
      {"measurement": "hydrolysis of the β-chain of fibrin", "setting": "[3]; after 30 min", "result": "partially hydrolyzed"},
      {"measurement": "hydrolysis of the α-chain of fibrin", "setting": "[3]; after 1 h", "result": "completely hydrolyzed"},
      {"measurement": "hydrolysis of the γ-γ-chain of fibrin", "setting": "[3]; after 1 h", "result": "completely hydrolyzed"},
      {"measurement": "hydrolysis of the β-chain of fibrin", "setting": "[3]; after 2 h", "result": "not completely hydrolyzed"},
      {"measurement": "hydrolysis of the β-chain of fibrin", "setting": "[3]; after 24 h (data not shown)", "result": "not completely hydrolyzed"},
      {"measurement": "Enzyme activity compared with the enzyme activity (100%) at 50° C.", "setting": "[4]; at 40° C.", "result": 26, "unit": "%"},
      {"measurement": "Enzyme activity compared with the enzyme activity (100%) at 50° C.", "setting": "[4]; at 60° C.", "result": 18, "unit": "%"},
      {"measurement": "optimal temperature for the activity of the protease", "setting": "[4]; standard assay buffer, 1 h", "result": 50, "unit": "°C"},
      {"measurement": "optimal pH for the activity of protease", "setting": "[4]; various buffers at 50° C.", "result": 7.0}
    ]}
  ]
}
